# ± gives the expanded uncertainty stated by the source.
# Test: activity coefficient (dimensionless); of the first substance listed, at infinite dilution; xn = mol fraction of the nth substance listed
# Details: Liquid, x1 = 0
Structure (SMILES),activity coefficient (298.15 K),activity coefficient (313.15 K),activity coefficient (323.15 K)
C1CCCCC1 [cyclohexane] + CCCCCCn1cc[n+](C)c1.F[P-](F)(F)(F)(F)F,12.7 ± 1.2,10.6 ± 0.97,9.38 ± 0.86
C1CCCC1 [cyclopentane] + CCCCCCn1cc[n+](C)c1.F[P-](F)(F)(F)(F)F,8.53 ± 0.78,7.21 ± 0.66,6.08 ± 0.56
CCCCCC [hexane] + CCCCCCn1cc[n+](C)c1.F[P-](F)(F)(F)(F)F,22.5 ± 5.4,19.2 ± 4.4,15 ± 3
C=CCCCC [hex-1-ene] + CCCCCCn1cc[n+](C)c1.F[P-](F)(F)(F)(F)F,10.4 ± 0.96,9.09 ± 0.83,7.88 ± 0.72
CCCCCCCC [octane] + CCCCCCn1cc[n+](C)c1.F[P-](F)(F)(F)(F)F,44.7 ± 4.2,37.1 ± 3.5,32 ± 3
c1ccccc1 [benzene] + CCCCCCn1cc[n+](C)c1.F[P-](F)(F)(F)(F)F,1.03 ± 0.05,1.04 ± 0.06,1.07 ± 0.06
CO [methanol] + CCCCCCn1cc[n+](C)c1.F[P-](F)(F)(F)(F)F,1.94 ± 0.17,1.6 ± 0.13,1.44 ± 0.11
C#CCCCC [1-hexyne] + CCCCCCn1cc[n+](C)c1.F[P-](F)(F)(F)(F)F,,2.78 ± 0.25,2.82 ± 0.26
C=CCCCCC [1-heptene] + CCCCCCn1cc[n+](C)c1.F[P-](F)(F)(F)(F)F,15.3 ± 1.4,13.8 ± 1.3,12.4 ± 1.1
C1CCCCCCC1 [cyclooctane] + CCCCCCn1cc[n+](C)c1.F[P-](F)(F)(F)(F)F,,18.7 ± 1.7,12.2 ± 1.1
C#CCCCCC [1-heptyne] + CCCCCCn1cc[n+](C)c1.F[P-](F)(F)(F)(F)F,,4.03 ± 0.37,4.07 ± 0.37
CCCCCCC [heptane] + CCCCCCn1cc[n+](C)c1.F[P-](F)(F)(F)(F)F,30.6 ± 2.8,25.7 ± 2.4,22.2 ± 2
C#CCCCCCC [1-octyne] + CCCCCCn1cc[n+](C)c1.F[P-](F)(F)(F)(F)F,,5.86 ± 0.54,5.81 ± 0.53
CCCCC [pentane] + CCCCCCn1cc[n+](C)c1.F[P-](F)(F)(F)(F)F,13.7 ± 2.7,12.2 ± 2.4,8.48 ± 1.4
C=CCCCCCC [oct-1-ene] + CCCCCCn1cc[n+](C)c1.F[P-](F)(F)(F)(F)F,21.9 ± 2,19.5 ± 1.8,18 ± 1.7
C1CCCCCC1 [cycloheptane] + CCCCCCn1cc[n+](C)c1.F[P-](F)(F)(F)(F)F,,14.2 ± 1.3,11.8 ± 1.1
